Measurements reported in ChEMBL document CHEMBL1201861, “Genomics of Drug Sensitity in Cancer screening data, Wellcome Trust Sanger Institute”.

Tests used:
Experiment in all cases: cells
LB2518-MEL = format: functional, cell-based; settings: Homo sapiens;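 note: growth inhibition of human LB2518-MEL cells, measured with a cell viability assay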
Description: SANGER: Inhibition of human LB2518-MEL cell growth in a cell viability assay.

TE-12 = format: functional, cell-based, Homo sapiens; settings: Homo sapiens, TE-12;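 note: growth inhibition of TE-12 cells, read out by a cell viability assay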
Description: SANGER: Inhibition of human TE-12 cell growth in a cell viability assay.

HDLM-2 = format: functional, cell-based, Homo sapiens; settings: Homo sapiens, HDLM-2;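 note: cell viability assay measuring suppression of HDLM-2 proliferation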
Description: SANGER: Inhibition of human HDLM-2 cell growth in a cell viability assay.

GT3TKB = format: functional, cell-based, Homo sapiens; settings: Homo sapiens, GT3TKB;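 note: growth inhibition of the cell line, read out with a cell viability assay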
Description: SANGER: Inhibition of human GT3TKB cell growth in a cell viability assay.

A3-KAW = format: functional, cell-based, Homo sapiens; settings: Homo sapiens, A3-KAW;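 note: growth inhibition of human A3-KAW cells, read out with a cell viability assay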
Description: SANGER: Inhibition of human A3-KAW cell growth in a cell viability assay.

TE-10 = format: functional, cell-based, Homo sapiens; settings: Homo sapiens, TE-10;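 note: growth inhibition of TE-10 cells, measured by a cell viability assay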
Description: SANGER: Inhibition of human TE-10 cell growth in a cell viability assay.

NCI-H1395 = format: functional, cell-based, Homo sapiens; settings: Homo sapiens, NCI-H1395;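 note: cell viability assay read-out quantifying reduced proliferation of human NCI-H1395 cells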
Description: SANGER: Inhibition of human NCI-H1395 cell growth in a cell viability assay.

COLO-668 = format: functional, cell-based, Homo sapiens; settings: Homo sapiens, COLO-668
Description: SANGER: Inhibition of human COLO-668 cell growth in a cell viability assay.

GB-1 = format: functional, cell-based, Homo sapiens; settings: Homo sapiens, GB-1;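 note: growth of GB-1 cells judged by a viability assay, IC50 marks the concentration inhibiting growth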
Description: SANGER: Inhibition of human GB-1 cell growth in a cell viability assay.

MS-1 = format: functional, cell-based, Homo sapiens; settings: Homo sapiens, MS-1;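 note: growth inhibition of MS-1 cells, read out by cell viability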
Description: SANGER: Inhibition of human MS-1 cell growth in a cell viability assay.

LC-2-ad = format: functional, cell-based, Homo sapiens; settings: Homo sapiens, LC-2-ad;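 note: growth inhibition of human LC-2-ad cells, read out with a cell viability assay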
Description: SANGER: Inhibition of human LC-2-ad cell growth in a cell viability assay.

NTERA-2-cl-D1 = format: functional, cell-based, Homo sapiens; settings: Homo sapiens, NTERA-2-cl-D1;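 note: inhibition of cell growth, measured with a cell viability assay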
Description: SANGER: Inhibition of human NTERA-S-cl-D1 cell growth in a cell viability assay.

MV4-11 = format: functional, cell-based, Homo sapiens, MV-4-11; settings: Homo sapiens, MV4-11;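 note: cell viability readout measuring growth inhibition of human MV-4-11 cells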
Description: SANGER: Inhibition of human MV-4-11 cell growth in a cell viability assay.

OS-RC-2 = format: functional, cell-based, Homo sapiens; settings: Homo sapiens, OS-RC-2;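 note: growth inhibition of human OS-RC-2 cells, measured by a cell viability assay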
Description: SANGER: Inhibition of human OS-RC-2 cell growth in a cell viability assay.

A4-Fuk = format: functional, cell-based, Homo sapiens; settings: Homo sapiens, A4-Fuk;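 note: growth inhibition of A4-Fuk cells, read out by a cell viability assay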
Description: SANGER: Inhibition of human A4-Fuk cell growth in a cell viability assay.

NCI-H1299 = format: functional, cell-based; settings: Homo sapiens;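 note: growth inhibition of human NCI-H1299 cells, read out by a cell viability assay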
Description: SANGER: Inhibition of human NCI-H1299 cell growth in a cell viability assay.

KINGS-1 = format: functional, cell-based, Homo sapiens; settings: Homo sapiens, KINGS-1;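 note: cell viability assay measuring suppression of KINGS-1 cell growth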
Description: SANGER: Inhibition of human KINGS-1 cell growth in a cell viability assay.

BB65-RCC = format: functional, cell-based, Homo sapiens; settings: Homo sapiens, BB65-RCC;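 note: growth inhibition of the cell line, measured with a cell viability assay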
Description: SANGER: Inhibition of human BB65-RCC cell growth in a cell viability assay.

KARPAS-299 = format: functional, cell-based, Homo sapiens; settings: Homo sapiens, KARPAS-299
Description: SANGER: Inhibition of human KARPAS-299 cell growth in a cell viability assay.

OCUB-M = format: functional, cell-based; settings: Homo sapiens;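 note: growth inhibition of the cancer cell line, read out through a cell viability assay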
Description: SANGER: Inhibition of human OCUB-M cell growth in a cell viability assay.

LB2241-RCC = format: functional, cell-based, Homo sapiens; settings: Homo sapiens, LB2241-RCC;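 note: cell viability assay measuring how strongly the cultured human renal carcinoma line is prevented from growing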
Description: SANGER: Inhibition of human LB2241-RCC cell growth in a cell viability assay.

MHH-NB-11 = format: functional, cell-based, Homo sapiens; settings: Homo sapiens, MHH-NB-11;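 note: growth inhibition of human MHH-NB-11 cells, read out by a cell viability assay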
Description: SANGER: Inhibition of human MHH-NB-11 cell growth in a cell viability assay.

SNB-75 = format: functional, cell-based, Homo sapiens; settings: Homo sapiens, SNB-75;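 note: cell viability assay measuring growth inhibition of human SNB-75 cells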
Description: SANGER: Inhibition of human SNB75 cell growth in a cell viability assay.

LS-123 = format: functional, cell-based, Homo sapiens; settings: Homo sapiens, LS-123
Description: SANGER: Inhibition of human LS-123 cell growth in a cell viability assay.

LU-134-A = format: functional, cell-based, Homo sapiens; settings: Homo sapiens, LU-134-A
Description: SANGER: Inhibition of human LU-134-A cell growth in a cell viability assay.

LB1047-RCC = format: functional, cell-based, Homo sapiens; settings: Homo sapiens, LB1047-RCC;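 note: inhibition of cell growth, determined with a cell viability assay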
Description: SANGER: Inhibition of human LB1047-RCC cell growth in a cell viability assay.

MHH-PREB-1 = format: functional, cell-based, Homo sapiens; settings: Homo sapiens, MHH-PREB-1;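 note: cell viability assay measuring inhibition of proliferation of human MHH-PREB-1 cells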
Description: SANGER: Inhibition of human MHH-PREB-1 cell growth in a cell viability assay.

NCI-H747 = format: functional, cell-based, Homo sapiens; settings: Homo sapiens, NCI-H747;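 note: growth inhibition of human NCI-H747 cells, read out by a cell viability assay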
Description: SANGER: Inhibition of human NCI-H747 cell growth in a cell viability assay.

HT = format: functional, cell-based, Homo sapiens; settings: Homo sapiens, HT
Description: SANGER: Inhibition of human HT cell growth in a cell viability assay.

CW-2 = format: functional, cell-based, Homo sapiens; settings: Homo sapiens, CW-2;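 note: growth inhibition of CW-2 cells, read out by a cell viability assay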
Description: SANGER: Inhibition of human CW-2 cell growth in a cell viability assay.

AU565 = format: functional, cell-based; settings: Homo sapiens;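 note: cell viability assay measuring growth inhibition of human AU565 cells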
Description: SANGER: Inhibition of human AU565 cell growth in a cell viability assay.

SW 954 = format: functional, cell-based, Homo sapiens; settings: Homo sapiens, SW 954;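 note: growth inhibition of SW954 human cancer cells, read out as cell viability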
Description: SANGER: Inhibition of human SW954 cell growth in a cell viability assay.

SK-MEL-2 = format: functional, cell-based, Homo sapiens; settings: Homo sapiens, SK-MEL-2;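 note: growth inhibition of human SK-MEL-2 cells measured with a cell viability assay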
Description: SANGER: Inhibition of human SK-MEL-2 cell growth in a cell viability assay.

GCIY = format: functional, cell-based, Homo sapiens; settings: Homo sapiens, GCIY;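 note: growth inhibition of the human GCIY cell line, read out by a cell viability assay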
Description: SANGER: Inhibition of human GCIY cell growth in a cell viability assay.

NCI-H1355 = format: functional, cell-based, Homo sapiens; settings: Homo sapiens, NCI-H1355;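 note: growth inhibition of human NCI-H1355 cells, read out by a cell viability assay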
Description: SANGER: Inhibition of human NCI-H1355 cell growth in a cell viability assay.

JVM-3 = format: functional, cell-based, Homo sapiens; settings: Homo sapiens, JVM-3;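 note: growth inhibition of human JVM-3 cells, read out with a cell viability assay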
Description: SANGER: Inhibition of human JVM-3 cell growth in a cell viability assay.

BFTC-905 = format: functional, cell-based; settings: Homo sapiens
Description: SANGER: Inhibition of human BFTC-905 cell growth in a cell viability assay.

NB6 = format: functional, cell-based, Homo sapiens; settings: Homo sapiens, NB6;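 note: growth inhibition of NB6 cells, read out by a cell viability assay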
Description: SANGER: Inhibition of human NB6 cell growth in a cell viability assay.

CP50-MEL-B = format: functional, cell-based; settings: Homo sapiens;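 note: growth inhibition of the human cell line, measured with a cell viability read-out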
Description: SANGER: Inhibition of human CP50-MEL-B cell growth in a cell viability assay.

no-11 = format: functional, cell-based, Homo sapiens; settings: Homo sapiens;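 note: growth inhibition of human NO-11 cells, read out with a cell viability assay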
Description: SANGER: Inhibition of human no-11 cell growth in a cell viability assay.

KNS-81-FD = format: functional, cell-based, Homo sapiens; settings: Homo sapiens, KNS-81-FD;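 note: growth inhibition of KNS-81-FD cells, read out with a cell viability assay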
Description: SANGER: Inhibition of human KNS-81-FD cell growth in a cell viability assay.

EW-11 = format: functional, cell-based, Homo sapiens; settings: Homo sapiens, EW-11;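 note: growth inhibition of human EW-11 cells, measured with a cell viability assay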
Description: SANGER: Inhibition of human EW-11 cell growth in a cell viability assay.

MEG-01 = format: functional, cell-based, Homo sapiens; settings: Homo sapiens, MEG-01;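 note: growth inhibition of MEG-01 cells, read out by a cell viability assay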
Description: SANGER: Inhibition of human MEG-01 cell growth in a cell viability assay.

Calu-6 = format: functional, cell-based, Homo sapiens; settings: Homo sapiens, Calu-6;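 note: growth of human Calu-6 cells, read out by a cell viability assay, IC50 marking inhibition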
Description: SANGER: Inhibition of human Calu-6 cell growth in a cell viability assay.

8-MG-BA = format: functional, cell-based, Homo sapiens; settings: Homo sapiens, 8-MG-BA;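 note: growth inhibition of 8-MG-BA cells, read out with a cell viability assay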
Description: SANGER: Inhibition of human 8-MG-BA cell growth in a cell viability assay.

OCI-AML2 = format: functional, cell-based, Homo sapiens; settings: Homo sapiens, OCI-AML2;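 note: growth inhibition of OCI-AML2 cells, read out with a cell viability assay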
Description: SANGER: Inhibition of human OCI-AML2 cell growth in a cell viability assay.

BB30-HNC = format: functional, cell-based, Homo sapiens; settings: Homo sapiens, BB30-HNC;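 note: growth inhibition of the cultured cell line, read out by a cell viability assay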
Description: SANGER: Inhibition of human BB30-HNC cell growth in a cell viability assay.

NCI-H209 = format: functional, cell-based, Homo sapiens; settings: Homo sapiens, NCI-H209;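 note: growth inhibition of human NCI-H209 cells, measured by a cell viability assay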
Description: SANGER: Inhibition of human NCI-H209 cell growth in a cell viability assay.

KY821 = format: functional, cell-based, Homo sapiens; settings: Homo sapiens, KY821;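 note: growth inhibition of human KY821 cells, read out by a cell viability assay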
Description: SANGER: Inhibition of human KY821 cell growth in a cell viability assay.

O=C(NCCCNc1nc(Nc2cccc(NC(=O)N3CCCC3)c2)ncc1I)c1cccs1 [BX-795]
IC50 (LB2518-MEL): > 5000 nM
IC50 (TE-12): > 5000 nM
IC50 (HDLM-2): > 5000 nM
IC50 (GT3TKB): 1900 nM
IC50 (A3-KAW): 731 nM
IC50 (TE-10): > 5000 nM
IC50 (NCI-H1395): > 5000 nM
IC50 (COLO-668): > 5000 nM
IC50 (GB-1): 4640 nM
IC50 (MS-1): > 5000 nM
IC50 (LC-2-ad): 1470 nM
IC50 (NTERA-2-cl-D1): 1080 nM
IC50 (MV4-11): 36.8 nM
IC50 (OS-RC-2): > 5000 nM
IC50 (A4-Fuk): > 5000 nM
IC50 (NCI-H1299): > 5000 nM
IC50 (KINGS-1): 3700 nM
IC50 (BB65-RCC): > 5000 nM
IC50 (KARPAS-299): > 5000 nM
IC50 (OCUB-M): > 5000 nM
IC50 (LB2241-RCC): 2690 nM
IC50 (MHH-NB-11): > 5000 nM
IC50 (SNB-75): > 5000 nM
IC50 (LS-123): > 5000 nM
IC50 (LU-134-A): 3430 nM
IC50 (LB1047-RCC): 1290 nM
IC50 (MHH-PREB-1): 2810 nM
IC50 (NCI-H747): > 5000 nM
IC50 (HT): > 5000 nM
IC50 (CW-2): > 5000 nM
IC50 (AU565): > 5000 nM
IC50 (SW 954): 3440 nM
IC50 (SK-MEL-2): 4020 nM
IC50 (GCIY): > 5000 nM
IC50 (NCI-H1355): > 5000 nM
IC50 (JVM-3): 1860 nM
IC50 (BFTC-905): 1080 nM
IC50 (NB6): 2740 nM
IC50 (CP50-MEL-B): > 5000 nM
IC50 (no-11): > 5000 nM
IC50 (KNS-81-FD): > 5000 nM
IC50 (EW-11): > 5000 nM
IC50 (MEG-01): > 5000 nM
IC50 (Calu-6): > 5000 nM
IC50 (8-MG-BA): 1960 nM
IC50 (OCI-AML2): > 5000 nM
IC50 (BB30-HNC): > 5000 nM

O=C1NC(=O)c2c1c(-c1ccccc1Cl)cc1[nH]c3ccc(O)cc3c21
IC50 (LB2518-MEL): > 2000 nM
IC50 (TE-12): > 2000 nM
IC50 (HDLM-2): > 2000 nM
IC50 (GT3TKB): > 2000 nM
IC50 (A3-KAW): 516 nM
IC50 (TE-10): > 2000 nM
IC50 (NCI-H209): 562 nM
IC50 (NCI-H1395): > 2000 nM
IC50 (COLO-668): > 2000 nM
IC50 (GB-1): > 2000 nM
IC50 (MS-1): 771 nM
IC50 (LC-2-ad): > 2000 nM
IC50 (NTERA-2-cl-D1): > 2000 nM
IC50 (MV4-11): 809 nM
IC50 (KY821): > 2000 nM
IC50 (OS-RC-2): > 2000 nM
IC50 (A4-Fuk): > 2000 nM
IC50 (NCI-H1299): > 2000 nM
IC50 (KINGS-1): > 2000 nM
IC50 (BB65-RCC): 1420 nM
IC50 (KARPAS-299): > 2000 nM
IC50 (OCUB-M): > 2000 nM
IC50 (LB2241-RCC): 394 nM
IC50 (MHH-NB-11): > 2000 nM
IC50 (SNB-75): > 2000 nM
IC50 (LS-123): > 2000 nM
IC50 (LU-134-A): 917 nM
IC50 (MHH-PREB-1): 523 nM
IC50 (NCI-H747): > 2000 nM
IC50 (HT): > 2000 nM
IC50 (CW-2): > 2000 nM
IC50 (AU565): > 2000 nM
IC50 (SW 954): 213 nM
IC50 (SK-MEL-2): > 2000 nM
IC50 (GCIY): > 2000 nM
IC50 (NCI-H1355): > 2000 nM
IC50 (JVM-3): 1430 nM
IC50 (BFTC-905): 1620 nM
IC50 (NB6): > 2000 nM
IC50 (CP50-MEL-B): > 2000 nM
IC50 (no-11): > 2000 nM
IC50 (KNS-81-FD): > 2000 nM
IC50 (EW-11): > 2000 nM
IC50 (MEG-01): > 2000 nM
IC50 (Calu-6): > 2000 nM
IC50 (8-MG-BA): 1550 nM
IC50 (OCI-AML2): > 2000 nM
IC50 (BB30-HNC): 1360 nM
